# Data taken from publication PMC6352954, “Benzylamides and piperazinoarylamides of ibuprofen as fatty acid amide hydrolase inhibitors” (Journal of Enzyme Inhibition and Medicinal Chemistry, 2019).
# Tests used:
# FAAH [1] = biological target: T1, FAAH (Rattus norvegicus, UniProt P97612); conditions: cited from earlier work
# T1 sequence (P97612 1-579): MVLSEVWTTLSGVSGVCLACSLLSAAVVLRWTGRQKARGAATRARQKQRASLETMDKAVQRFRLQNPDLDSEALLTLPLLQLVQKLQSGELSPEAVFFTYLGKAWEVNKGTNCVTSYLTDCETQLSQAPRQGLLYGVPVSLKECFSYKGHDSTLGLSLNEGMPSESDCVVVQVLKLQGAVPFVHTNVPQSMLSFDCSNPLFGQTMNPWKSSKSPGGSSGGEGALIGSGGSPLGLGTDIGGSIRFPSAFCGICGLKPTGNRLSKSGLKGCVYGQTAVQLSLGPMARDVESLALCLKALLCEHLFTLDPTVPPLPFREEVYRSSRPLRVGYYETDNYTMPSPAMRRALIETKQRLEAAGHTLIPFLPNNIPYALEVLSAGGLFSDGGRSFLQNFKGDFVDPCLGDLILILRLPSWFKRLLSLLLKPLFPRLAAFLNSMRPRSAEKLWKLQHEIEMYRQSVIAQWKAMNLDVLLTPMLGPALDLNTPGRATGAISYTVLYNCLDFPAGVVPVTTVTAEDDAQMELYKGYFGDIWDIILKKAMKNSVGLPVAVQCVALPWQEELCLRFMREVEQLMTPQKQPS
# FAAH [2] = biological target: T1, FAAH; experiment: FAAH assay: inhibition of rat brain [3H]AEA hydrolysis; conditions: for FAAH inhibitory activity (in words): 0.5 μM [3H]AEA, rat brain homogenates
# Experimental: Frozen (−80 °C) brains (minus cerebella) from adult Wistar or Sprague-Dawley rats were thawed and homogenised in 20 mM HEPES, 1 mM MgCl2, pH 7.0. and thereafter centrifuged at ∼35000 × g for 20 min at 4 °C. Homogenates were washed (by centrifugation at ∼35000 × g for 20 min at 4 °C followed by resuspension in the buffer) twice and incubated at 37 °C for 15 min in order to hydrolyse all endogenous FAAH substrates. After a further centrifugation, pellets were resuspended in 50 mM Tris-HCl buffer, pH 7.4, containing 1 mM EDTA and 3 mM MgCl2, and frozen at −80 °C in aliquots until used for the assay. For the FAAH assay[34] test compounds, homogenates (usually 0.5–0.8 μg protein per assay, diluted with 10 mM Tris-HCl, 1 mM EDTA pH 7.4) and 25 μL of [^3H]AEA in 10 mM Tris- HCl, 1 mM EDTA, pH 7.4, containing 1% w/v fatty acid-free bovine serum albumin, final substrate concentration of 0.5 μM) were incubated for 10 min at 37 °C (final assay volume 200 μL). Reactions were stopped by placing the tubes on ice. Final assay concentrations of the solvents used for the compounds (ethanol or DMSO) were in the range 1–5%. Activated charcoal (80 μL + 320 μL 0.5 M HCl) was added and the samples were mixed and left at room temperature for about 30 min. Following centrifugation at 2500 rpm for 10 min, aliquots (200 μL) of the supernatants were analysed for tritium content by liquid scintillation spectroscopy with quench correction. Blank values were obtained by the use of buffer rather than homogenate.
# In general, FAAH assays upon three homogenates were undertaken using separate inhibitor dilution series (from a stock solution), with 6 concentrations of inhibitor in half-log concentrations (i.e. 1, 3, 10 µM etc) ranging from 0.3–100 µM. Data were expressed as % of vehicle control and analysed using the algorithm log(inhibitor) vs. response – variable slope (four parameters) built into the GraphPad Prism computer programme for the Macintosh (GraphPad Software Inc., San Diego, CA). Two different curve fits were chosen: one where the top (uninhibited) value was set to 100 and the bottom (maximum inhibition) was set to 0, and one where the top was set to 100 and the bottom allowed to float. The best model (when the bottom value returned >0) was chosen by Akaike’s informative criteria. Since the programme uses log10 inhibitor concentrations, the IC50 values for the inhibitable fraction are derived from the corresponding − log10(IC50) (pI50) values. […] In consequence, we report both pI50 and IC50 values to indicate the SE values.
# The inhibition assays were performed using 0.5 μM [^3H]AEA as substrate and rat brain homogenates as the enzyme source.
# [3] = design: method as in PMID 12767601; conditions: cited from earlier work
smiles,measurement,setting,value
Cc1cccnc1NC(=O)[C@@H](C)c1ccc(CC(C)C)cc1 [(S)-IbuAM5],FAAH inhibitory activity of (S)-enantiomer relative to (R)-enantiomer,FAAH [1],10 fold
"CC(C)Cc1ccc(C(C)C(=O)NCc2ccccc2Cl)cc1 (centres unmarked) [Compound 11, N-(2-Chlorobenzyl)-2–(4-isobutylphenyl)propanamide]",IC50,FAAH [2],4.1 µM
"CC(C)Cc1ccc(C(C)C(=O)NCc2ccc(Cl)cc2Cl)cc1 (centres unmarked) [Compound 14, N-(2,4-Dichlorobenzyl)-2–(4-isobutylphenyl)propanamide]",IC50,FAAH [2],21 µM
"CC(C)Cc1ccc(C(C)C(=O)NCc2cc(Cl)ccc2Cl)cc1 (centres unmarked) [Compound 15, N-(2,5-Dichlorobenzyl)-2–(4-isobutylphenyl)propanamide]",IC50,FAAH [2],4.4 µM
"CC(C)Cc1ccc(C(C)C(=O)NCc2c(Cl)cccc2Cl)cc1 (centres unmarked) [Compound 16, N-(2,6-Dichlorobenzyl)-2–(4-isobutylphenyl)propanamide]",FAAH inhibitory activity (in words),FAAH [2],complete loss of activity
same,melting point,,130 to 135 °C
"CC(C)Cc1ccc(C(C)C(=O)N2CCN(c3ccc(Cl)c(Cl)c3)CC2)cc1 (centres unmarked) [Compound 21, 1–(4-(3,4-Dichlorophenyl)piperazin-1-yl)-2–(4-isobutylphenyl)propan-1-one]",loss of FAAH inhibitory activity relative to amide 19,"FAAH [2]; 3,4-dichlorophenyl versus 3-chlorophenyl analogue",10 fold
"CC(C)Cc1ccc(C(C)C(=O)N2CCN(c3ccc(F)cc3)CC2)cc1 (centres unmarked) [Compound 22, 1–(4-(4-Fluorophenyl)piperazin-1-yl)-2–(4-isobutylphenyl)propan-1-one]",IC50,FAAH [2],17 µM
"Cc1ccccc1N1CCN(C(=O)C(C)c2ccc(CC(C)C)cc2)CC1 (centres unmarked) [Compound 27, 2–(4-Isobutylphenyl)-1–(4-(o-tolyl)piperazin-1-yl)propan-1-one]",FAAH inhibitory activity (in words),FAAH [2],loss of activity
Cc1cccnc1NC(=O)C(C)c1ccc(CC(C)C)cc1 (centres unmarked) [Ibu-AM5],ulcerogenic potency relative to ibuprofen,[3],much lower ulcerogenic potency than ibuprofen
same,potency as reversible FAAH inhibitor relative to ibuprofen,FAAH [1],two to three orders of magnitude more potent than ibuprofen
